Results reported in patent publication US10639253B2, “Compositions” (Symrise AG, priority 2014, dated 2020).

Columns and labels:
Experiment in all cases: Antimicrobial activity in formulation: colony counts over 28 days, synergy by Kull equation
Settings in all cases: for Relative colony counts: relative to day 0; for Colony counts: counts <10 set to 10
A. brasiliensis = format: cell-based, Aspergillus brasiliensis
Source text: Synergistic antimicrobial activity of lactate esters and other flavor and fragrance ingredients against different microorganisms relevant for cosmetics were investigated. To calculate the synergism between lactate esters and other flavor and fragrance ingredients, the Kull equation^1,2 was used ^1 Kull, […]., and R. L. Mayer (1961). Mixtures of Quaternary Ammonium Compounds and Long-chain Fatty Acids as Antifungal Agents. Applied Microbiology 9, 538-541.^2 Steinberg, D. C. (2000). Measuring Synergy. Cosmetics & Toiletries 115 (11), 59-62. SI=(Cmixture×PA)/CA+(Cmixture×PB)/CB where • SI is the Synergy Index according to Kull^1), 2) • CA is the cell count for substance A • CB is the cell count for substance B • Cmixture is the cell count for the mixture of substances A and B • PA is the proportion of the substance A in the mixture • PB is the proportion of the substance B in the mixture. […] The abbreviation “n.a.” means not applicable.

S. aureus = format: cell-based, Staphylococcus aureus
Source text: (§1) Synergistic antimicrobial activity of lactate esters and other flavor and fragrance ingredients against different microorganisms relevant for cosmetics were investigated.
(§2) To calculate the synergism between lactate esters and other flavor and fragrance ingredients, the Kull equation^1,2 was used ^1 Kull, F. C., Eismann, P. C., Sylvestrowicz, H. D., and R. L. Mayer (1961). Mixtures of Quaternary Ammonium Compounds and Long-chain Fatty Acids as Antifungal Agents. Applied Microbiology 9, 538-541.^2 Steinberg, D. C. (2000). Measuring Synergy. Cosmetics & Toiletries 115 (11), 59-62. SI=(Cmixture×PA)/CA+(Cmixture×PB)/CB where • SI is the Synergy Index according to Kull^1), 2) • CA is the cell count for substance A • CB is the cell count for substance B • Cmixture is the cell count for the mixture of substances A and B • PA is the proportion of the substance A in the mixture • PB is the proportion of the substance B in the mixture.
(§3) Colony counts of <10 were arbitrarily set to 10, in order to allow for synergy calculations with the above equation. The abbreviation “n.a.” means not applicable.

E. coli = format: cell-based, Escherichia coli
Source text: as §1, §2, §3

C. albicans = format: cell-based, Candida albicans
Source text: as §1, §2, §3

For `COc1ccc(C(=O)O)cc1` [AAc, p-anisic acid], the Relative colony counts (A. brasiliensis; 0.5%, day 0) was 1.0000, the Relative colony counts (A. brasiliensis; 0.5%, day 2) was 0.3514 and the Colony counts (A. brasiliensis; 0.5%, day 7) was 200.000 cfu/g formulation. It also gave a Relative colony counts (A. brasiliensis; 0.5%, day 7) of 0.0541, a Relative colony counts (A. brasiliensis; 0.5%, day 14) of 0.3243 and a Relative colony counts (A. brasiliensis; 0.5%, day 28) of 0.5676. For the same molecule, the Relative colony counts (S. aureus; 0.5%, day 0) was 1.0000, the Relative colony counts (S. aureus; 0.5%, day 2) was 0.8095 and the Colony counts (S. aureus; 0.5%, day 7) was 130 cfu/g formulation. The Relative colony counts (S. aureus; 0.5%, day 7) was 0.0001, the Colony counts (S. aureus; 0.5%, day 14) was 10 cfu/g formulation and the Relative colony counts (S. aureus; 0.5%, day 14) was 0.0000. It also gave a Colony counts (S. aureus; 0.5%, day 28) of 10 cfu/g formulation, a Relative colony counts (S. aureus; 0.5%, day 28) of 0.0000 and a Relative colony counts (E. coli; 0.5%, day 0) of 1.0000. For the same molecule, the Colony counts (E. coli; 0.5%, day 2) was 140.000 cfu/g formulation, the Relative colony counts (E. coli; 0.5%, day 2) was 0.0609 and the Colony counts (E. coli; 0.5%, day 7) was 15.000 cfu/g formulation. The Relative colony counts (E. coli; 0.5%, day 7) was 0.0065, the Colony counts (E. coli; 0.5%, day 14) was 3.100 cfu/g formulation and the Relative colony counts (E. coli; 0.5%, day 14) was 0.0013. The Colony counts (E. coli; 0.5%, day 28) was 10 cfu/g formulation and the Relative colony counts (E. coli; 0.5%, day 28) was 0.0000.

Work on `COc1ccc(C=O)cc1` [AAld, p-anisic aldehyde] yielded a Relative colony counts (A. brasiliensis; 0.5%, day 0) of 1.0000, a Colony counts (A. brasiliensis; 0.5%, day 2) of 560.000 cfu/g formulation and a Relative colony counts (A. brasiliensis; 0.5%, day 2) of 0.1931. For the same molecule, the Colony counts (A. brasiliensis; 0.5%, day 7) was 140.000 cfu/g formulation, the Relative colony counts (A. brasiliensis; 0.5%, day 7) was 0.0483 and the Colony counts (A. brasiliensis; 0.5%, day 14) was 2.100 cfu/g formulation. For the same molecule, the Relative colony counts (A. brasiliensis; 0.5%, day 14) was 0.0007, the Colony counts (A. brasiliensis; 0.5%, day 28) was 15 cfu/g formulation and the Relative colony counts (A. brasiliensis; 0.5%, day 28) was 0.0000.

`CCCCCOC(=O)C(C)O` (stereo not shown) [AL, amyl lactate] gave a Relative colony counts (A. brasiliensis; 1%, day 0) of 1.0000, a Colony counts (A. brasiliensis; 1%, day 2) of 160.000 cfu/g formulation and a Relative colony counts (A. brasiliensis; 1%, day 2) of 0.0552. It also gave a Relative colony counts (A. brasiliensis; 1%, day 7) of 0.4828, a Colony counts (A. brasiliensis; 1%, day 14) of 320.000 cfu/g formulation and a Relative colony counts (A. brasiliensis; 1%, day 14) of 0.1103. It also gave a Colony counts (A. brasiliensis; 1%, day 28) of 660 cfu/g formulation, a Relative colony counts (A. brasiliensis; 1%, day 28) of 0.0002 and a Relative colony counts (S. aureus; 1%, day 0) of 1.0000. For the same molecule, the Colony counts (S. aureus; 1%, day 2) was 21.000 cfu/g formulation, the Relative colony counts (S. aureus; 1%, day 2) was 0.0072 and the Colony counts (S. aureus; 1%, day 7) was 15 cfu/g formulation. For the same molecule, the Relative colony counts (S. aureus; 1%, day 7) was 0.0000, the Colony counts (S. aureus; 1%, day 14) was 10 cfu/g formulation and the Relative colony counts (S. aureus; 1%, day 14) was 0.0000. The Colony counts (S. aureus; 1%, day 28) was 10 cfu/g formulation and the Relative colony counts (S. aureus; 1%, day 28) was 0.0000.

Work on `CC(O)C(=O)OCc1ccccc1` (stereo not shown) [BL, benzyl lactate] yielded a Relative colony counts (A. brasiliensis; 1%, day 0) of 1.0000, a Colony counts (A. brasiliensis; 1%, day 2) of 270.000 cfu/g formulation and a Relative colony counts (A. brasiliensis; 1%, day 2) of 0.0931. It also gave a Colony counts (A. brasiliensis; 1%, day 7) of 4.500 cfu/g formulation, a Relative colony counts (A. brasiliensis; 1%, day 7) of 0.0016 and a Colony counts (A. brasiliensis; 1%, day 14) of 110 cfu/g formulation. For the same molecule, the Relative colony counts (A. brasiliensis; 1%, day 14) was 0.0000, the Colony counts (A. brasiliensis; 1%, day 28) was 10 cfu/g formulation and the Relative colony counts (A. brasiliensis; 1%, day 28) was 0.0000. For the same molecule, the Relative colony counts (S. aureus; 1%, day 0) was 1.0000, the Colony counts (S. aureus; 1%, day 2) was 1.600 cfu/g formulation and the Relative colony counts (S. aureus; 1%, day 2) was 0.0006. For the same molecule, the Colony counts (S. aureus; 1%, day 7) was 10 cfu/g formulation, the Relative colony counts (S. aureus; 1%, day 7) was 0.0000 and the Colony counts (S. aureus; 1%, day 14) was 10 cfu/g formulation. The Relative colony counts (S. aureus; 1%, day 14) was 0.0000, the Colony counts (S. aureus; 1%, day 28) was 10 cfu/g formulation and the Relative colony counts (S. aureus; 1%, day 28) was 0.0000.

`CCCCOC(=O)C(C)O` (stereo not shown) [BuL, butyl lactate] was tested, and the Relative colony counts (A. brasiliensis; 1.25%, day 0) was 1.0000, the Colony counts (A. brasiliensis; 1.25%, day 2) was 730.000 cfu/g formulation and the Relative colony counts (A. brasiliensis; 1.25%, day 2) was 0.2517. The Relative colony counts (A. brasiliensis; 1.25%, day 7) was 0.5517, the Relative colony counts (A. brasiliensis; 1.25%, day 14) was 0.3793 and the Colony counts (A. brasiliensis; 1.25%, day 28) was 150.000 cfu/g formulation. For the same molecule, the Relative colony counts (A. brasiliensis; 1.25%, day 28) was 0.0517, the Relative colony counts (C. albicans; 1.25%, day 0) was 1.0000 and the Colony counts (C. albicans; 1.25%, day 2) was 740.000 cfu/g formulation. It also gave a Relative colony counts (C. albicans; 1.25%, day 2) of 0.3083, a Colony counts (C. albicans; 1.25%, day 7) of 430 cfu/g formulation and a Relative colony counts (C. albicans; 1.25%, day 7) of 0.0002. For the same molecule, the Colony counts (C. albicans; 1.25%, day 14) was 10 cfu/g formulation, the Relative colony counts (C. albicans; 1.25%, day 14) was 0.0000 and the Colony counts (C. albicans; 1.25%, day 28) was 10 cfu/g formulation. The Relative colony counts (C. albicans; 1.25%, day 28) was 0.0000, the Relative colony counts (E. coli; 1.25%, day 0) was 1.0000 and the Colony counts (E. coli; 1.25%, day 2) was 13.000 cfu/g formulation. The Relative colony counts (E. coli; 1.25%, day 2) was 0.0041, the Colony counts (E. coli; 1.25%, day 7) was 10 cfu/g formulation and the Relative colony counts (E. coli; 1.25%, day 7) was 0.0000. The Colony counts (E. coli; 1.25%, day 14) was 10 cfu/g formulation, the Relative colony counts (E. coli; 1.25%, day 14) was 0.0000 and the Colony counts (E. coli; 1.25%, day 28) was 10 cfu/g formulation. It also gave a Relative colony counts (E. coli; 1.25%, day 28) of 0.0000.

For `OCCCc1ccccc1` [PP, 3-phenylpropanol], the Relative colony counts (C. albicans; 0.5%, day 0) was 1.0000, the Relative colony counts (C. albicans; 0.5%, day 2) was 0.4583 and the Colony counts (C. albicans; 0.5%, day 7) was 930.000 cfu/g formulation. For the same molecule, the Relative colony counts (C. albicans; 0.5%, day 7) was 0.3875, the Colony counts (C. albicans; 0.5%, day 14) was 31.000 cfu/g formulation and the Relative colony counts (C. albicans; 0.5%, day 14) was 0.0129. The Colony counts (C. albicans; 0.5%, day 28) was 10 cfu/g formulation, the Relative colony counts (C. albicans; 0.5%, day 28) was 0.0000 and the Relative colony counts (S. aureus; 0.5%, day 0) was 1.0000. The Colony counts (S. aureus; 0.5%, day 2) was 23.000 cfu/g formulation, the Relative colony counts (S. aureus; 0.5%, day 2) was 0.0079 and the Colony counts (S. aureus; 0.5%, day 7) was 80 cfu/g formulation. The Relative colony counts (S. aureus; 0.5%, day 7) was 0.0000, the Colony counts (S. aureus; 0.5%, day 14) was 10 cfu/g formulation and the Relative colony counts (S. aureus; 0.5%, day 14) was 0.0000. For the same molecule, the Colony counts (S. aureus; 0.5%, day 28) was 10 cfu/g formulation and the Relative colony counts (S. aureus; 0.5%, day 28) was 0.0000.
